Measurements: US20150218120A1 (The Regents of the University of California, priority 2011, published 2015)
Where “and” joins values, the source holds several entries; their conditions need not be identical. Equal values may be shown once. Read-outs that look alike come from different tables or passages of the source.

What was measured:
HIV = test: microbe, parasite or virus in culture; type: cell-based; settings: read-out: Antiviral Activity IC50
Experimental: (§1) In addition to cell-free in vitro assays, eight RCD compounds were examined for inhibition of viral replication (Table 1) (Day J R, et al., J. Virol. Meth. 137(1):125-133 (2006)).
Computational docking was preformed using the Glide software package (Glide v5.5; Schrodinger, Inc.). Enzyme and cell-based assays were performed as previously described (Metifiot M, et al., Biochemistry 49:3715-3722 (2010); Marchand C, Neamati N, & Pommier Y, Methods Enzymol 340:624-633 (2001); Day J R, et al., J. Virol. Meth. 137(1):125-133 (2006)). Complete synthetic and experimental details are provided herein.

HIV-1 IN [1] = target: T1, HIV-1 IN (Human immunodeficiency virus type 1 group M subtype B, UniProt P12497); test: HIV-1 IN strand transfer (ST) gel-based catalytic assay; type: biochemical; design: made in house; settings: for IC50: Strand Transfer IC50, 32P-end labeled oligonucleotides in solution, gel-based separation
Description: As described above, HIV-1 IN has two functions: 3′-processing (3P) and strand transfer (ST). […] All 21 RCD compounds were screened for inhibitory activity against the 3P and ST reactions using published protocols (Metifiot M, et al., Biochemistry 49:3715-3722 (2010); Marchand C, Neamati N, & Pommier Y, Methods Enzymol 340:624-633 (2001)).
Some assays use preassembled HIV-1 IN on immobilized oligonucleotides (Pace P, et al., J. Med. Chem. 50(9):2225-2239 (2007)), whereas the assay provided herein uses ^32-P-end labeled oligonucleotides in solution and gel-based separation of the reaction products.
Recombinant HIV-1 IN and oligonucleotide substrates were obtained as previously reported (Marinello et al. Biochemistry 2008, 47, 9345-9354; Metifiot et al. Antimicrob. Agents Chemother. 2011, 55, 5127-5133; Hare et al. Mol. Pharmacol. 2011, 80, 565-572). Integrase reactions were performed in 10 μL total volume including 400 nM HIV-1 IN, 20 nM 5′-end [^32P]-labeled oligonucleotide substrate, and 1 μL inhibitor solution in 50 mM MOPS, pH 7.2, 7.5 mM MgCl2, and 14.3 mM 2-mercaptoethanol Inhibitor dilutions were in DMSO, and DMSO without drug was used as a control. Reactions were incubated at 37° C. for 60 min, terminated by adding 10 μL loading dye (10 mM EDTA, 98% deionized formamide, 0.025% xylene cyanol, and 0.025% bromophenol blue), and were subjected to electrophoresis in 20% polyacrylamide-7 M urea gels. Gels were dried and reaction products were visualized and quantified with a Typhoon 8600 (GE Healthcare, Little Chalfont, Buckinghamshire, UK).

HIV-1 IN [2] = target: T1, HIV-1 IN; test: HIV-1 IN 3′-processing (3P) gel-based catalytic assay; type: biochemical; design: made in house
Description: As described above, HIV-1 IN has two functions: 3′-processing (3P) and strand transfer (ST).
Gels were dried and reaction products were visualized and quantified with a Typhoon 8600 (GE Healthcare, Little Chalfont, Buckinghamshire, UK).

HIV-1 IN [3] = target: T1, HIV-1 IN; settings: read-out: IC50 against the strand transfer reaction of HIV-1 IN, reported value; Pace et al. 2007; preassembled IN on immobilized oligonucleotides; cited from earlier work
P4R5 cells = test: Toxicity assay on P4R5 cells; type: cell-based; settings: at a concentration of 10 μM
Description: as §1

[4] = Human immunodeficiency virus 1, P4/R5, P4R5 cells

| SMILES | IC50 (HIV-1 IN [1]) | IC50 (HIV-1 IN [2]; read-out: 3'-Processing IC50) | further results |
| --- | --- | --- | --- |
| O=C(NCc1ccc(F)cc1)c1ccc2cccc(O)c2n1 [RCD-13, N-(4-Fluorobenzyl)-8-hydroxyquinoline-2-carboxamide] | > 100 µM | > 100 µM | IC50 (HIV; [4]): > 100 µM; inhibition at 100 µM (HIV-1 IN [1]; read-out: Strand transfer inhibition): < 30% |
| O=C(NCc1ccc(F)cc1)c1cccc(C(=O)NCc2ccc(F)cc2)c1O [RCD-19, N1,N3-Bis(4-fluorobenzyl)-2-hydroxyisophthalamide] | > 300 µM | > 300 µM |  |
| CNC(=O)c1ccc(C(=O)NCc2ccc(F)cc2)c(O)c1O [RCD-10, N1-(4-Fluorobenzyl)-2,3-dihydroxy-N4-methylterephthalamide] | 1.5 µM and < 15 µM and < 2 µM |  | IC50 (HIV; [4]): < 4 µM; IC50 (HIV; P4R5 cells): 4 µM; IC50 (HIV-1 IN [2]): > 200 µM |
| Cc1cc(=O)c(O)c(C(=O)NCc2ccc(F)cc2)o1 [RCD-5] | 0.55 µM and < 15 µM | 59.5 ± 1.4 µM |  |
| O=C(NCc1ccc(F)cc1)c1ccccc1O [RCD-15, N-(4-Fluorobenzyl)-2-hydroxybenzamide] | > 100 µM | > 100 µM |  |
| O=C(NCc1ccc(F)cc1)c1ccc(C(=O)NCc2ccc(F)cc2)c(O)c1O [RCD-11, N1,N4-Bis(4-fluorobenzyl)-2,3-dihydroxyterephthalamide] | 1.7 µM and < 2 µM | > 300 µM |  |
| O=C(NCc1ccc(F)cc1)c1cccc(C(=O)NCc2ccc(F)cc2)[n+]1[O-] [RCD-17, 2,6-Bis((4-fluorobenzyl)carbamoyl)pyridine 1-oxide] | > 100 µM |  | IC50 (HIV; [4]): > 100 µM; IC50 (HIV-1 IN [2]): > 300 µM |
| O=C(O)c1cccc(C(=O)NCc2ccc(F)cc2)[n+]1[O-] [RCD-16, 2-Carboxy-6-((4-fluorobenzyl)carbamoyl)pyridine 1-oxide] | 9.2 ± 1.3 µM | 21.4 ± 3 µM |  |
| COc1cccc(C(=O)NCc2ccc(F)cc2)c1O [RCD-9, N-(4-Fluorobenzyl)-2-hydroxy-3-methoxybenzamide] | > 100 µM | > 100 µM | Strand transfer activity in words (HIV-1 IN [1]; concentrations as high as 100 μM): complete loss of activity |
| O=C(NCc1ccc(F)cc1)c1cccc(O)c1O [RCD-8, N-(4-Fluorobenzyl)-2,3-dihydroxybenzamide] | 39.4 ± 4 µM | > 100 µM |  |
| Cc1nc(C(=O)NCc2ccc(F)cc2)c(O)c(=O)[nH]1 [RCD-1, N-(4-Fluorobenzyl)-5-hydroxy-2-methyl-6-oxo-1,6-dihydropyrimidine-4-carboxamide] | ~1 µM and 1 µM |  | Selectivity for ST versus 3P reaction (HIV-1 IN [1]; ST versus 3P): selectivity for the ST versus 3P reaction; IC50 (HIV-1 IN [3]): 0.06 µM; IC50 (HIV-1 IN [2]): > 100 µM |
| O=C(NCc1ccc(F)cc1)c1occc(=O)c1O [RCD-4] | 0.96 µM | > 100 µM |  |
| O=C(NCc1ccc(F)cc1)c1ccc2ccc[n+]([O-])c2c1O [RCD-14, 7-((4-Fluorobenzyl)carbamoyl)-8-hydroxyquinoline 1-oxide] | 3.8 ± 0.3 µM |  | Toxicity on P4R5 cells (P4R5 cells): some toxicity; IC50 (HIV-1 IN [2]): 40.5 ± 2 µM |
| Cc1occ(O)c(=O)c1C(=O)NCc1ccc(F)cc1 | 56 ± 7 µM | > 100 µM |  |
| Cn1ccc(=O)c(O)c1C(=O)NCc1ccc(F)cc1 [RCD-2] | > 100 µM | > 100 µM |  |
| O=C(NCc1ccc(F)cc1)c1ccc2cccnc2c1O [RCD-12] |  |  | IC50 (HIV; [4]): < 4 µM; IC50 (HIV; P4R5 cells): 2.3 µM |
| CNC(=O)c1cccc(C(=O)NCc2ccc(F)cc2)c1O [RCD-18, N1-(4-Fluorobenzyl)-2-hydroxy-N3-methylisophthalamide] | > 300 µM |  | IC50 (HIV; [4]): > 100 µM; IC50 (HIV-1 IN [2]): > 300 µM |
| Cc1cc(=O)c(O)c(C(=O)NCc2ccc(F)cc2)n1C [RCD-3] | > 100 µM | > 100 µM |  |
| O=C(NCc1ccc(F)cc1)c1cccc(=O)n1O [RCD-7] | 19.7 ± 1.6 µM | > 100 µM |  |
